{"source": "patent US20110294138A1", "about": "“METHODS FOR SIMULTANEOUSLY MEASURING THE IN VIVO METABOLISM OF TWO OR MORE ISOFORMS OF A BIOMOLECULE” (THE WASHINGTON UNIVERSITY, priority 2008, published 2011)", "tested_on": "immortalized knock-in murine astrocytes expressing human ApoE4", "assay": "Production (stable isotope labeling kinetics, SILT) of human ApoE4 in immortalized knock-in murine astrocytes", "format": "cell-based", "conditions": "50% 13C6-leucine in media, media collected over 48 hours, n=3; calculated from initial slope and plateau TTR", "experimental": "FIG. 5 presents the production of human ApoE4 in immortalized knock-in murine astrocytes. ApoE4 expressing astrocytes were grown to confluency. ^13C6-Leucine was added to the media at time t=0 bringing the total percent ^13C6-leucine to 50%. Media was collected over 48 hours. ApoE was captured using liposorb, reduced and alkylated, and digested with trypsin. ApoE4 specific peptides were analyzed by nano-LC MS/MS. The SILT method was used to determine the incorporation of ^13C6-leucine into ApoE (n=3, error bars SEM). The fractional synthetic rate (FSR) of ApoE4 was calculated using initial slope and plateau tracer to tracee ratio (TTR) of 8.5% per hour. […]\nApoE was isolated either by overnight incubation with anti-ApoE antibody (WUE4) coupled to CNBr-activated Sepharose beads, or incubation for 30 min (4° C.) with PHM-Liposorb™ (Calbiochem, San Diego, Calif.). […] After desalting using Nu-tip carbon tips (Glygen Corp., Columbia, Md.), the supernatant containing ApoE peptides was analyzed by nano-LC tandem MS (Thermo-Finnigan LTQ equipped with a New Objective nanoflow ESI source) as previously described (Bateman et al., 2006, Nature Medicine, 12:856-861). The samples were quantitated using the stable-isotope tandem labeled (SILT) mass spectroscopy method as described by Bateman et al. 2007 J Am Soc Mass Spectrum 18(6):[…]. […]"}
{"substance": "ApoE4: Human apolipoprotein E isoform ApoE4 (arg112, arg158), endogenous protein whose metabolism is measured", "values": [{"measurement": "fractional synthetic rate (FSR) of ApoE4", "result": 8.5, "unit": "% per hour"}]}
